Measured values as given in PMC13042316 (Open journal of immunology, 2011).

Target: recombinant human MBL (mannose-binding lectin) (Homo sapiens, UniProt P11226)
Assay: ELISA, inhibition of MBL binding to immobilised mannan

Chain of recombinant human MBL (mannose-binding lectin) (P11226 21-248): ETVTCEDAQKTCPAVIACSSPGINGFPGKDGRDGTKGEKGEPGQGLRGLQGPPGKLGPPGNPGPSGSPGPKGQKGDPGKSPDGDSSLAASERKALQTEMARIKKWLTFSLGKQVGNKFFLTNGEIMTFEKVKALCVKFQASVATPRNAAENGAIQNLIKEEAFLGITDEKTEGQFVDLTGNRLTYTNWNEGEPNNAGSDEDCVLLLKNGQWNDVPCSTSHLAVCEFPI

IC50: > 11 mM
SMILES: OC[C@H]1O[C@@](CO)(O[C@H]2O[C@H](CO)[C@@H](O)[C@H](O)[C@H]2O)[C@@H](O)[C@@H]1O [sucrose]
